In PubChem BioAssay AID2060903 (Molecular Pharmacology Branch, DTP, NCI, 2025):

System: 377384-186-R-J1-PDC complex spheroid viability
Test: Anticancer human tumor 377384-186-R-J1-PDC patient-derived pancreatic carcinoma cell line growth inhibition [RAS]
Conditions: for IC50: curve of first compound; for viability, T/C: stronger effect = lower value
Procedure, shortened: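 Tumour cells grown as complex spheroids with HUVEC endothelial cells and mesenchymal stem cells, treated with RAS pathway inhibitor combinations. Each agent spans half-log steps from near clinical Cmax, or 10 microM where Cmax is unknown.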

[1] = second compound 0.00316 µM, first compound 0.000949 µM
[2] = second compound 0.00316 µM, first compound 0.003 µM
[3] = second compound 0.00316 µM, first compound 0.00949 µM
[4] = second compound 0.00316 µM, first compound 0.03 µM
[5] = second compound 0.00316 µM, first compound 0.0949 µM
[6] = second compound 0.00316 µM, first compound 0.3 µM
[7] = second compound 0.01 µM, first compound 0.000949 µM
[8] = second compound 0.01 µM, first compound 0.003 µM
[9] = second compound 0.01 µM, first compound 0.00949 µM
[10] = second compound 0.01 µM, first compound 0.03 µM
[11] = second compound 0.01 µM, first compound 0.0949 µM
[12] = second compound 0.01 µM, first compound 0.3 µM
[13] = second compound 0.0316 µM, first compound 0.000949 µM
[14] = second compound 0.0316 µM, first compound 0.003 µM
[15] = second compound 0.0316 µM, first compound 0.00949 µM
[16] = second compound 0.0316 µM, first compound 0.03 µM
[17] = second compound 0.0316 µM, first compound 0.0949 µM
[18] = second compound 0.0316 µM, first compound 0.3 µM
[19] = second compound 0.1 µM, first compound 0.000949 µM
[20] = second compound 0.1 µM, first compound 0.003 µM
[21] = second compound 0.1 µM, first compound 0.00949 µM
[22] = second compound 0.1 µM, first compound 0.03 µM
[23] = second compound 0.1 µM, first compound 0.0949 µM
[24] = second compound 0.1 µM, first compound 0.3 µM
[25] = second compound 0.316 µM, first compound 0.000949 µM
[26] = second compound 0.316 µM, first compound 0.003 µM
[27] = second compound 0.316 µM, first compound 0.00949 µM
[28] = second compound 0.316 µM, first compound 0.03 µM
[29] = second compound 0.316 µM, first compound 0.0949 µM
[30] = second compound 0.316 µM, first compound 0.3 µM
[31] = second compound 1 µM, first compound 0.000949 µM
[32] = second compound 1 µM, first compound 0.003 µM
[33] = second compound 1 µM, first compound 0.00949 µM
[34] = second compound 1 µM, first compound 0.03 µM
[35] = second compound 1 µM, first compound 0.0949 µM
[36] = second compound 1 µM, first compound 0.3 µM
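Note: spheroids exposed to compounds for seven days before readout.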

## CC(=O)OC12COC1CC(O)C1(C)C(=O)C(O)C3=C(C)C(OC(=O)C(O)C(NC(=O)OC(C)(C)C)c4ccccc4)CC(O)(C(OC(=O)c4ccccc4)C21)C3(C)C (stereo unspecified) + C=CC(=O)N1CCN(c2nc(OCC3CCCN3C)nc3c(F)c(-c4nc(N)cc(C)c4C(F)(F)F)c(Cl)cc23)C(C)C1
Second compound 0.00316 µM
  IC50: < 31.6 nM
Second compound 0.01 µM
  IC50: < 31.6 nM
Second compound 0.0316 µM
  IC50: < 31.6 nM
Second compound 0.1 µM
  IC50: < 31.6 nM
Second compound 0.316 µM
  IC50: < 31.6 nM
Second compound 1 µM
  IC50: < 31.6 nM
Second compound 0.00316 µM, first compound 0.0316 µM
  viability, T/C: 9.92%
Second compound 0.00316 µM, first compound 0.1 µM
  viability, T/C: 11.3%
Second compound 0.00316 µM, first compound 0.316 µM
  viability, T/C: 8.82%
Second compound 0.00316 µM, first compound 1 µM
  viability, T/C: 12.3%
Second compound 0.00316 µM, first compound 3.16 µM
  viability, T/C: 11.7%
Second compound 0.00316 µM, first compound 10 µM
  viability, T/C: 14.2%
Second compound 0.01 µM, first compound 0.0316 µM
  viability, T/C: 8.32%
Second compound 0.01 µM, first compound 0.1 µM
  viability, T/C: 8.59%
Second compound 0.01 µM, first compound 0.316 µM
  viability, T/C: 9.28%
Second compound 0.01 µM, first compound 1 µM
  viability, T/C: 10.8%
Second compound 0.01 µM, first compound 3.16 µM
  viability, T/C: 14.4%
Second compound 0.01 µM, first compound 10 µM
  viability, T/C: 11.4%
Second compound 0.0316 µM, first compound 0.0316 µM
  viability, T/C: 8.72%
Second compound 0.0316 µM, first compound 0.1 µM
  viability, T/C: 8.61%
Second compound 0.0316 µM, first compound 0.316 µM
  viability, T/C: 9.75%
Second compound 0.0316 µM, first compound 1 µM
  viability, T/C: 12.3%
Second compound 0.0316 µM, first compound 3.16 µM
  viability, T/C: 13.2%
Second compound 0.0316 µM, first compound 10 µM
  viability, T/C: 14%
Second compound 0.1 µM, first compound 0.0316 µM
  viability, T/C: 9.31%
Second compound 0.1 µM, first compound 0.1 µM
  viability, T/C: 9.36%
Second compound 0.1 µM, first compound 0.316 µM
  viability, T/C: 9.95%
Second compound 0.1 µM, first compound 1 µM
  viability, T/C: 12.9%
Second compound 0.1 µM, first compound 3.16 µM
  viability, T/C: 12.4%
Second compound 0.1 µM, first compound 10 µM
  viability, T/C: 9.63%
Second compound 0.316 µM, first compound 0.0316 µM
  viability, T/C: 9.62%
Second compound 0.316 µM, first compound 0.1 µM
  viability, T/C: 7.81%
Second compound 0.316 µM, first compound 0.316 µM
  viability, T/C: 8.61%
Second compound 0.316 µM, first compound 1 µM
  viability, T/C: 10.3%
Second compound 0.316 µM, first compound 3.16 µM
  viability, T/C: 13.6%
Second compound 0.316 µM, first compound 10 µM
  viability, T/C: 14.5%
Second compound 1 µM, first compound 0.0316 µM
  viability, T/C: 9.06%
Second compound 1 µM, first compound 0.1 µM
  viability, T/C: 11.8%
Second compound 1 µM, first compound 0.316 µM
  viability, T/C: 13.3%
Second compound 1 µM, first compound 1 µM
  viability, T/C: 12.9%
Second compound 1 µM, first compound 3.16 µM
  viability, T/C: 12.3%
Second compound 1 µM, first compound 10 µM
  viability, T/C: 14.5%

## CC1(C)CCC(Nc2ncc(C(F)(F)F)c(-c3c[nH]c4c(P(C)(C)=O)c(C#N)ccc34)n2)CN1 (stereo unspecified) + C=CC(=O)N1CCN(c2nc(OCC3CCCN3C)nc3c(F)c(-c4nc(N)cc(C)c4C(F)(F)F)c(Cl)cc23)C(C)C1
Second compound 0.00316 µM
  IC50: 2.98 nM
Second compound 0.01 µM
  IC50: 4.06 nM
Second compound 0.0316 µM
  IC50: 4.22 nM
Second compound 0.1 µM
  IC50: 2.65 nM
Second compound 0.316 µM
  IC50: 3.18 nM
Second compound 1 µM
  IC50: 3.33 nM
[1]
  viability, T/C: 83.3%
[2]
  viability, T/C: 49.5%
[3]
  viability, T/C: 27.8%
[4]
  viability, T/C: 15.9%
[5]
  viability, T/C: 14.4%
[6]
  viability, T/C: 13.2%
[7]
  viability, T/C: 89%
[8]
  viability, T/C: 57.6%
[9]
  viability, T/C: 28.6%
[10]
  viability, T/C: 17%
[11]
  viability, T/C: 13.9%
[12]
  viability, T/C: 14.7%
[13]
  viability, T/C: 79.1%
[14]
  viability, T/C: 60.1%
[15]
  viability, T/C: 26%
[16]
  viability, T/C: 18.8%
[17]
  viability, T/C: 14.8%
[18]
  viability, T/C: 15%
[19]
  viability, T/C: 74.6%
[20]
  viability, T/C: 46.9%
[21]
  viability, T/C: 27.7%
[22]
  viability, T/C: 17.5%
[23]
  viability, T/C: 14.5%
[24]
  viability, T/C: 12.5%
[25]
  viability, T/C: 76.1%
[26]
  viability, T/C: 51.3%
[27]
  viability, T/C: 26.7%
[28]
  viability, T/C: 16.5%
[29]
  viability, T/C: 13.6%
[30]
  viability, T/C: 13.2%
[31]
  viability, T/C: 78.7%
[32]
  viability, T/C: 52.6%
[33]
  viability, T/C: 25%
[34]
  viability, T/C: 17.4%
[35]
  viability, T/C: 16%
[36]
  viability, T/C: 12.5%

## CCc1c2c(nc3ccc(O)cc13)-c1cc3c(c(=O)n1C2)COC(=O)[C@]3(O)CC + C=CC(=O)N1CCN(c2nc(OCC3CCCN3C)nc3c(F)c(-c4nc(N)cc(C)c4C(F)(F)F)c(Cl)cc23)C(C)C1
Second compound 0.00316 µM
  IC50: 1.55 nM
Second compound 0.01 µM
  IC50: 1.4 nM
Second compound 0.0316 µM
  IC50: 1.41 nM
Second compound 0.1 µM
  IC50: 1.24 nM
Second compound 0.316 µM
  IC50: 1.38 nM
Second compound 1 µM
  IC50: 1.18 nM
[1]
  viability, T/C: 62.2%
[2]
  viability, T/C: 33.5%
[3]
  viability, T/C: 14.6%
[4]
  viability, T/C: 6.38%
[5]
  viability, T/C: 2.5%
[6]
  viability, T/C: 1.05%
[7]
  viability, T/C: 59%
[8]
  viability, T/C: 31.9%
[9]
  viability, T/C: 18.1%
[10]
  viability, T/C: 5.58%
[11]
  viability, T/C: 2.2%
[12]
  viability, T/C: 1.1%
[13]
  viability, T/C: 61%
[14]
  viability, T/C: 28.6%
[15]
  viability, T/C: 14%
[16]
  viability, T/C: 6.21%
[17]
  viability, T/C: 2.11%
[18]
  viability, T/C: 1.21%
[19]
  viability, T/C: 55.5%
[20]
  viability, T/C: 32.2%
[21]
  viability, T/C: 15.7%
[22]
  viability, T/C: 4.22%
[23]
  viability, T/C: 2.88%
[24]
  viability, T/C: 0.95%
[25]
  viability, T/C: 57.9%
[26]
  viability, T/C: 33.1%
[27]
  viability, T/C: 17.6%
[28]
  viability, T/C: 6.72%
[29]
  viability, T/C: 2.76%
[30]
  viability, T/C: 1%
[31]
  viability, T/C: 53.6%
[32]
  viability, T/C: 33.9%
[33]
  viability, T/C: 18.9%
[34]
  viability, T/C: 7.03%
[35]
  viability, T/C: 2.97%
[36]
  viability, T/C: 1.13%
